Results taken from patent US9371280B2, “Substituted pyrrolidine-2-carboxamides” (Hoffmann-La Roche Inc., priority 2012, dated 2016).
Structures can show the parent of a compound that is named as a salt.

Biological target: interaction between p53 and MDM2 proteins (recombinant GST-tagged MDM2) (Homo sapiens, UniProt Q00987)
Assay: HTRF assay of inhibition of the p53-MDM2 interaction (GST-MDM2 / biotinylated p53 peptide);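 also: FRET read-out from Eu-labelled anti-GST antibody to streptavidin-APC, with 90 nM N-terminally biotinylated p53 peptide and 160 ng/ml GST-MDM2 in Tris-borate saline containing 1 mM DTT, 384-well format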
Format: binding
Details: HTRF, 0.02% BSA, 37° C. 1 h
Method: The ability of the compounds to inhibit the interaction between p53 and MDM2 proteins was measured by an HTRF (homogeneous time-resolved fluorescence) assay in which recombinant GST-tagged MDM2 binds to a peptide that resembles the MDM2-interacting region of p53 (Lane et al.). Binding of GST-MDM2 protein and p53-peptide (biotinylated on its N-terminal end) is registered by the FRET (fluorescence resonance energy transfer) between Europium (Eu)-labeled anti-GST antibody and streptavidin-conjugated Allophycocyanin (APC).
Test is performed in black flat-bottom 384-well plates (Costar) in a total volume of 40 uL containing: 90 nM biotinylate peptide, 160 ng/ml GST-MDM2, 20 nM streptavidin-APC (PerkinElmerWallac), 2 nM Eu-labeled anti-GST-antibody (PerkinElmerWallac), 0.02% bovine serum albumin (BSA), 1 mM dithiothreitol (DTT) and 20 mM Tris-borate saline (TBS) buffer as follows: Add 10 uL of GST-MDM2 (640 ng/ml working solution) in reaction buffer to each well. […] Incubate at 37° C. for 1 h.

Sequence of interaction between p53 and MDM2 proteins (recombinant GST-tagged MDM2) (Q00987 whole entry): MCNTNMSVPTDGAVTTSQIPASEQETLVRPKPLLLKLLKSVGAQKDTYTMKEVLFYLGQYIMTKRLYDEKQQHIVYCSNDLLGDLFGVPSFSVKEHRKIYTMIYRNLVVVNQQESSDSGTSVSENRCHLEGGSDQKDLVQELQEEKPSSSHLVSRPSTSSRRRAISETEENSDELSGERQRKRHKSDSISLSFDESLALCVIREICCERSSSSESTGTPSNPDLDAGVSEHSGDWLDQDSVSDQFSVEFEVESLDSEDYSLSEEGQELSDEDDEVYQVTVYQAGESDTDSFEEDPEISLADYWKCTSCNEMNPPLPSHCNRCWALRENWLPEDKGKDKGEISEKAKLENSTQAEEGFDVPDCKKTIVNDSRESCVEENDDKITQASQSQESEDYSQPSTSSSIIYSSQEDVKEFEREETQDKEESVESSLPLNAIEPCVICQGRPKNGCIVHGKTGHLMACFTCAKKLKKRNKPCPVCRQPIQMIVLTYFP

Row | SMILES | IC50
1 | COc1cc(C(=O)OCC(=O)N2CCN(C)CC2)ccc1NC(=O)[C@@H]1N[C@@H](CC(C)(C)C)[C@](C#N)(c2ccc(Cl)cc2F)[C@H]1c1cccc(Cl)c1F [Example 64, 4-{[(2R,3S,4R,5S)-4-(4-Chloro-2-fluoro-phenyl)-3-(3-chloro-2-fluoro-phenyl)-4-cyano-5-(2,2-dimethyl-propyl)-pyrrolidine-2-carbonyl]-amino}-3-methoxy-benzoic acid 2-(4-methyl-piperazin-1-yl)-2-oxo-ethyl ester, hydrochloride] | 11.6 nM
2 | COc1cc(C(=O)OCC(N)=O)ccc1NC(=O)[C@@H]1N[C@@H](CC(C)(C)C)[C@](C#N)(c2ccc(Cl)cc2F)[C@H]1c1cccc(Cl)c1F [Example 65, 4-{[(2R,3S,4R,5S)-4-(4-Chloro-2-fluoro-phenyl)-3-(3-chloro-2-fluoro-phenyl)-4-cyano-5-(2,2-dimethyl-propyl)-pyrrolidine-2-carbonyl]-amino}-3-methoxy-benzoic acid carbamoylmethyl ester] | 12.9 nM
3 | COc1cc(C(=O)OCC(=O)N2CCOCC2)ccc1NC(=O)[C@@H]1N[C@@H](CC(C)(C)C)[C@](C#N)(c2ccc(Cl)cc2F)[C@H]1c1cccc(Cl)c1F [Example 66, 4-{[(2R,3S,4R,5S)-4-(4-Chloro-2-fluoro-phenyl)-3-(3-chloro-2-fluoro-phenyl)-4-cyano-5-(2,2-dimethyl-propyl)-pyrrolidine-2-carbonyl]-amino}-3-methoxy-benzoic acid 2-morpholin-4-yl-2-oxo-ethyl ester] | 9.04 nM
4 | COc1cc(C(=O)OCC(=O)NCC2COC(C)(C)O2)ccc1NC(=O)[C@@H]1N[C@@H](CC(C)(C)C)[C@](C#N)(c2ccc(Cl)cc2F)[C@H]1c1cccc(Cl)c1F (stereo partly drawn) [Example 67, 4-{[(2R,3S,4R,5S)-4-(4-Chloro-2-fluoro-phenyl)-3-(3-chloro-2-fluoro-phenyl)-4-cyano-5-(2,2-dimethyl-propyl)-pyrrolidine-2-carbonyl]-amino}-3-methoxy-benzoic acid [(2,2-dimethyl-[1,3]dioxolan-4-ylmethyl)-carbamoyl]-methyl ester] | 11.8 nM
5 | COc1cc(C(=O)OCC(=O)NCC(O)CO)ccc1NC(=O)[C@@H]1N[C@@H](CC(C)(C)C)[C@](C#N)(c2ccc(Cl)cc2F)[C@H]1c1cccc(Cl)c1F (stereo partly drawn) [Example 68, 4-{[(2R,3S,4R,5S)-4-(4-Chloro-2-fluoro-phenyl)-3-(3-chloro-2-fluoro-phenyl)-4-cyano-5-(2,2-dimethyl-propyl)-pyrrolidine-2-carbonyl]-amino}-3-methoxy-benzoic acid (2,3-dihydroxy-propylcarbamoyl)-methyl ester] | 12 nM
6 | COc1cc(C(=O)OCC(=O)N[C@@H](CCC(=O)OCc2ccccc2)C(=O)OCc2ccccc2)ccc1NC(=O)[C@@H]1N[C@@H](CC(C)(C)C)[C@](C#N)(c2ccc(Cl)cc2F)[C@H]1c1cccc(Cl)c1F [Example 70, (S)-2-[2-(4-{[(2R,3S,4R,5S)-4-(4-Chloro-2-fluoro-phenyl)-3-(3-chloro-2-fluoro-phenyl)-4-cyano-5-(2,2-dimethyl-propyl)-pyrrolidine-2-carbonyl]-amino}-3-methoxy-benzoyloxy)-acetylamino]-pentanedioic acid dibenzyl ester] | 56.4 nM
7 | COc1cc(C(=O)OCC(=O)N[C@@H](CCC(=O)O)C(=O)O)ccc1NC(=O)[C@@H]1N[C@@H](CC(C)(C)C)[C@](C#N)(c2ccc(Cl)cc2F)[C@H]1c1cccc(Cl)c1F [Example 71, (S)-2-[2-(4-{[(2R,3S,4R,5S)-4-(4-Chloro-2-fluoro-phenyl)-3-(3-chloro-2-fluoro-phenyl)-4-cyano-5-(2,2-dimethyl-propyl)-pyrrolidine-2-carbonyl]-amino}-3-methoxy-benzoyloxy)-acetylamino]-pentanedioic acid] | 5.94 nM
8 | COCCOCCOCCOC(=O)COC(=O)c1ccc(NC(=O)[C@@H]2N[C@@H](CC(C)(C)C)[C@](C#N)(c3ccc(Cl)cc3F)[C@H]2c2cccc(Cl)c2F)c(OC)c1 [Example 72, 4-{[(2R,3S,4R,5S)-4-(4-Chloro-2-fluoro-phenyl)-3-(3-chloro-2-fluoro-phenyl)-4-cyano-5-(2,2-dimethyl-propyl)-pyrrolidine-2-carbonyl]-amino}-3-methoxy-benzoic acid 2-[2-(2-methoxy-ethoxy)-ethoxy]-ethoxycarbonylmethyl ester] | 20.3 nM
9 | COCCOCCOCCOCCOC(=O)COC(=O)c1ccc(NC(=O)[C@@H]2N[C@@H](CC(C)(C)C)[C@](C#N)(c3ccc(Cl)cc3F)[C@H]2c2cccc(Cl)c2F)c(OC)c1 [Example 73, 4-{[(2R,3S,4R,5S)-4-(4-Chloro-2-fluoro-phenyl)-3-(3-chloro-2-fluoro-phenyl)-4-cyano-5-(2,2-dimethyl-propyl)-pyrrolidine-2-carbonyl]-amino}-3-methoxy-benzoic acid 2-{2-[2-(2-methoxy-ethoxy)-ethoxy]-ethoxy}-ethoxycarbonylmethyl ester] | 19.6 nM
10 | COc1cc(C(=O)OCC(=O)NCCOCCOCCOCCO)ccc1NC(=O)[C@@H]1N[C@@H](CC(C)(C)C)[C@](C#N)(c2ccc(Cl)cc2F)[C@H]1c1cccc(Cl)c1F [Example 75, 4-{[(2R,3S,4R,5S)-4-(4-Chloro-2-fluoro-phenyl)-3-(3-chloro-2-fluoro-phenyl)-4-cyano-5-(2,2-dimethyl-propyl)-pyrrolidine-2-carbonyl]-amino}-3-methoxy-benzoic acid (2-{2-[2-(2-hydroxy-ethoxy)-ethoxy]-ethoxy}-ethylcarbamoyl)-methyl ester] | 9.2 nM
11 | COc1cc(C(=O)NCCOCCOCCOCCNC(=O)c2ccc(NC(=O)[C@@H]3N[C@@H](CC(C)(C)C)[C@](C#N)(c4ccc(Cl)cc4F)[C@H]3c3cccc(Cl)c3F)c(OC)c2)ccc1NC(=O)[C@@H]1N[C@@H](CC(C)(C)C)[C@](C#N)(c2ccc(Cl)cc2F)[C@H]1c1cccc(Cl)c1F [Example 76, (2R,3S,4R,5S)-4-(4-Chloro-2-fluoro-phenyl)-3-(3-chloro-2-fluoro-phenyl)-4-cyano-5-(2,2-dimethyl-propyl)-pyrrolidine-2-carboxylic acid [4-(2-{2-[2-(2-amino-ethoxy)-ethoxy]-ethoxy}-ethylcarbamoyl)-2-methoxy-phenyl]-amide, dimer] | 64.3 nM
12 | COc1cc(C(=O)NCCOCCOCCOCCN)ccc1NC(=O)[C@@H]1N[C@@H](CC(C)(C)C)[C@](C#N)(c2ccc(Cl)cc2F)[C@H]1c1cccc(Cl)c1F [Example 77, (2R,3S,4R,5S)-4-(4-Chloro-2-fluoro-phenyl)-3-(3-chloro-2-fluoro-phenyl)-4-cyano-5-(2,2-dimethyl-propyl)-pyrrolidine-2-carboxylic acid [4-(2-{2-[2-(2-amino-ethoxy)-ethoxy]-ethoxy}-ethylcarbamoyl)-2-methoxy-phenyl]-amide] | 6.31 nM
13 | C=CCOC(=O)[C@H](CCCCNC(=O)OC(C)(C)C)NC(=O)COC(=O)c1ccc(NC(=O)[C@@H]2N[C@@H](CC(C)(C)C)[C@](C#N)(c3ccc(Cl)cc3F)[C@H]2c2cccc(Cl)c2F)c(OC)c1 [Example 78, 4-{[(2R,3S,4R,5S)-4-(4-Chloro-2-fluoro-phenyl)-3-(3-chloro-2-fluoro-phenyl)-4-cyano-5-(2,2-dimethyl-propyl)-pyrrolidine-2-carbonyl]-amino}-3-methoxy-benzoic acid ((S)-1-allyloxycarbonyl-5-tert-butoxycarbonylamino-pentylcarbamoyl)-methyl ester] | 16.6 nM
